Data set [1] concerns the target full-length FLAG-tagged B-Raf(V600E) (Homo sapiens (Human), UniProt P15056, V600E). The experiment in a line: BRAF V600E enzyme assay (TR-FRET competitive displacement). It counts as binding. The following applies: averaged IC50; TR-FRET tracer displacement, 60 min. An outline of the steps:
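TR-FRET tracer competition: compound (top dose 10 μM, 3-fold, 11 points) incubated 60 min at ambient temperature with FLAG-tagged full-length B-Raf(V600E) (5 nM), Eu anti-FLAG cryptate (0.5 nM) and tracer (50 nM), pH 7.4 HEPES/MgCl2 buffer. 665/615 ratio converted to percent of control; IC50 where fitted curve crosses 50 POC.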
(In general: TR-FRET usually uses a lanthanide donor and a delayed reading to cut background.)

Another data set concerns A375 cells. Put plainly: Cellular phospho-ERK inhibition assay in A375 cells. Type of data set: cell-based. The following applies: Homo sapiens, A-375, A375 cells (head prints A357), 2 hours treatment, read-out: A357 cell IC50. In short, it runs like this: (§1)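 In Cell Western detection of phospho-ERK1/2 (Thr202/Tyr204) over GAPDH after 2 h compound exposure (66 pM to 10 μM, 9 points, 0.25% DMSO) of A375 cells in DMEM or H1755 cells in RPMI, both with 10% FBS. Percent of control set by DMSO and 10 μM binimetinib; 4-parameter IC50.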

Another data set concerns H1755 cells. The experiment in a line: Cellular phospho-ERK inhibition assay in H1755 cells. Type of data set: cell-based. The following applies: Homo sapiens, NCI-H1755, 2 hours treatment, read-out: H1755 Cell IC50. An outline of the steps:
as §1

The nature of data set [2]: MDR1 LLC-PK1 and BCRP MDCKII permeability assay: permeability coefficient (Papp). Type of data set: in vitro ADME. The source says: (§2) Final organic concentration in the assay was 1%.
The next data set addresses P-gp (MDR1) (Homo sapiens (Human), UniProt P08183). The experiment in a line: MDR1 LLC-PK1 permeability assay: efflux ratio. Particulars: pig. Type of data set: in vitro ADME.
Excerpt: as §2

The target in the next data set is BCRP (Homo sapiens (Human), UniProt Q9UNQ0). Put plainly: BCRP MDCKII permeability assay: efflux ratio. Type of data set: in vitro ADME. The following applies: dog.
The nature of data set [3]: PK (free brain-to-free plasma ratio) (mouse). Type of data set: in vivo. The following applies: male CD-1 mice, oral gavage 10 mg/kg, unbound brain-to-unbound plasma, read-out: B/P ratio (free). The procedure: The ability of representative compounds to penetrate the BBB in mice was determined by evaluating the unbound brain-to-unbound plasma (also referred to as free brain-to-free plasma) concentration ratio in male CD-1 mice.
Brain compound levels were generated from oral mouse PK dosing with typical sampling times of 2, 4, 8, 12 and 24 hours post oral gavage dosing at 10 mg/kg. Brain samples were stored at −20±5° C. prior to analysis. Concentrations of test compound in mouse brain homogenate were determined by liquid chromatography tandem mass spectrometry (LC-MS/MS) following protein precipitation with acetonitrile. A 12-point calibration curve, ranging from 0.5 to 10,000 ng/mL, was prepared in duplicate. A solution of 400 μg/mL of test compound in dimethyl sulfoxide (DMSO) was serially diluted (3-fold) in 100% DMSO, and then 2.5 μL of each standard solution was added to 100 μL of naïve male CD-1 mice brain homogenate. To mimic the extraction in the standard curve, 2.5 μL of DMSO was added to all test samples. Both calibration and test brain homogenate samples were spiked with 10 μL of an IS (1 μg/mL of a structural analog). Brain homogenate was generated by adding 0.75 mL of 4:1 water:MeOH to each brain sample followed by homogenization for 1 minute with bead beater tubes a 6 m/s using an MP Fast Prep-24®. Proteins were precipitated from 100 μL of brain homogenate sample by the addition of 300 μL of acetonitrile. Samples were vortex-mixed for 5 minutes and spun in an Allegra X-12R centrifuge (Beckman Coulter, Fullerton, CA; SX4750A rotor) for 15 min at approximately 1,500×g at 4° C. A 100 μL aliquot of each supernatant was transferred via a 550 μL Personal Pipettor (Apricot Designs, Monrovia, CA) to 96-well plates and diluted 1:1 with HPLC grade water. The resulting plates were sealed with aluminum for LC-MS/MS analysis.
Brain-to-plasma ratios were calculated using the concentration of compound measured in the brain divided by the concentration of compound measured in the plasma. Brain-to-plasma ratios were always generated from a single animal and time point. Free brain-to-free plasma ratios were calculated by multiplying the brain-to-plasma ratio by the in vitro brain homogenate free fraction divided by the in vitro plasma free fraction using the following equation: (B/P)*(Bfu/Pfu). Table C provides the free brain-to-free plasma ratios of compounds disclosed herein.

Where a name gives a salt, the structure may show the parent alone.

Sequence of BCRP (Q9UNQ0 whole entry): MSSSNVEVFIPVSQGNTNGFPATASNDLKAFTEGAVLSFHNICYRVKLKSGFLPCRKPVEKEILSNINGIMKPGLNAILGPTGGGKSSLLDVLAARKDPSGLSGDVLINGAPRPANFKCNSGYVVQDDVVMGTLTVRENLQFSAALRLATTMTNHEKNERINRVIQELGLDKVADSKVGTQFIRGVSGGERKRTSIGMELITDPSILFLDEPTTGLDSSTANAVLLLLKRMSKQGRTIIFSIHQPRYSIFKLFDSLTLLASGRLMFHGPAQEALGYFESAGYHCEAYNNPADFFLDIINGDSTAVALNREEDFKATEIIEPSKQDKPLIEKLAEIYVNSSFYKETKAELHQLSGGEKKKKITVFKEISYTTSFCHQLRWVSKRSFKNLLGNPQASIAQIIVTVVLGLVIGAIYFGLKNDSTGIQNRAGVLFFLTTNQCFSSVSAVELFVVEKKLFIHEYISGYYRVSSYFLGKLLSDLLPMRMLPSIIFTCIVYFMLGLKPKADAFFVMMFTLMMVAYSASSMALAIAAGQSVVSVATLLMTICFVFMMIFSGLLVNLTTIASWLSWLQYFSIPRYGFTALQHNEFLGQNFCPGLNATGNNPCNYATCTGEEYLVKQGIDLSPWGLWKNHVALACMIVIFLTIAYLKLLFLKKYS
Sequence of P-gp (MDR1) (P08183 whole entry, species assumed): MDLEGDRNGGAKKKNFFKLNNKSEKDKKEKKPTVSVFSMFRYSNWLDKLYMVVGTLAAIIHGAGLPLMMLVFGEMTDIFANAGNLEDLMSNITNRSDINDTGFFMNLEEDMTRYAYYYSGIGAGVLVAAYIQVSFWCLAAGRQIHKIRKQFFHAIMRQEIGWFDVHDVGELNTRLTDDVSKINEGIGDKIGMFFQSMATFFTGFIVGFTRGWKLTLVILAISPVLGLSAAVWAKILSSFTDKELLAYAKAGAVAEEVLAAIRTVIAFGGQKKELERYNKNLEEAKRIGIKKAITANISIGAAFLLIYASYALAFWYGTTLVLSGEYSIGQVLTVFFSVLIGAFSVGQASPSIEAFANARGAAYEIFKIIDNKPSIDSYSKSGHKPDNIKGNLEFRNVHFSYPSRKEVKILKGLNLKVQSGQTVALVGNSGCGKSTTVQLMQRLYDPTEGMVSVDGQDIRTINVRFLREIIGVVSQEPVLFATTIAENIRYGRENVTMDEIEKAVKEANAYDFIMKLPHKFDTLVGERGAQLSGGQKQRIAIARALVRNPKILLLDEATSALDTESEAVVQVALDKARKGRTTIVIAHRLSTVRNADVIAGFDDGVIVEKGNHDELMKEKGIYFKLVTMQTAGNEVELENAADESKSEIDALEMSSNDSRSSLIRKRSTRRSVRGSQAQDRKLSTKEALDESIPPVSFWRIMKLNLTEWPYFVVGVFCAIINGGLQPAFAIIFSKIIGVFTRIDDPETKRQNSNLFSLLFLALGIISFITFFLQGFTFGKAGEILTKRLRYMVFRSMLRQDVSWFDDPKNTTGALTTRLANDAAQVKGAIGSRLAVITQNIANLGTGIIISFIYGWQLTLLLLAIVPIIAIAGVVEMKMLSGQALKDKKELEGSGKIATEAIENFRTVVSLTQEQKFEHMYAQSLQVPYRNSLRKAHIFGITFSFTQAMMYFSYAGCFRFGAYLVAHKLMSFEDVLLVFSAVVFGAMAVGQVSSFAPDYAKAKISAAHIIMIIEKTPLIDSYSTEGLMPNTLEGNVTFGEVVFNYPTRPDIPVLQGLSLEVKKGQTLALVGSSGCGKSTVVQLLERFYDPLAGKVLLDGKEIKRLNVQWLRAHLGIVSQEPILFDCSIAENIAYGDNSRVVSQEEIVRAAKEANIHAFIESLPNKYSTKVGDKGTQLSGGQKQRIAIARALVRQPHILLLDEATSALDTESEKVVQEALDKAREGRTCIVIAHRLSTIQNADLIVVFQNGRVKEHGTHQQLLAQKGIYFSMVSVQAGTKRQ
Sequence of full-length FLAG-tagged B-Raf(V600E) (P15056 whole entry V600E): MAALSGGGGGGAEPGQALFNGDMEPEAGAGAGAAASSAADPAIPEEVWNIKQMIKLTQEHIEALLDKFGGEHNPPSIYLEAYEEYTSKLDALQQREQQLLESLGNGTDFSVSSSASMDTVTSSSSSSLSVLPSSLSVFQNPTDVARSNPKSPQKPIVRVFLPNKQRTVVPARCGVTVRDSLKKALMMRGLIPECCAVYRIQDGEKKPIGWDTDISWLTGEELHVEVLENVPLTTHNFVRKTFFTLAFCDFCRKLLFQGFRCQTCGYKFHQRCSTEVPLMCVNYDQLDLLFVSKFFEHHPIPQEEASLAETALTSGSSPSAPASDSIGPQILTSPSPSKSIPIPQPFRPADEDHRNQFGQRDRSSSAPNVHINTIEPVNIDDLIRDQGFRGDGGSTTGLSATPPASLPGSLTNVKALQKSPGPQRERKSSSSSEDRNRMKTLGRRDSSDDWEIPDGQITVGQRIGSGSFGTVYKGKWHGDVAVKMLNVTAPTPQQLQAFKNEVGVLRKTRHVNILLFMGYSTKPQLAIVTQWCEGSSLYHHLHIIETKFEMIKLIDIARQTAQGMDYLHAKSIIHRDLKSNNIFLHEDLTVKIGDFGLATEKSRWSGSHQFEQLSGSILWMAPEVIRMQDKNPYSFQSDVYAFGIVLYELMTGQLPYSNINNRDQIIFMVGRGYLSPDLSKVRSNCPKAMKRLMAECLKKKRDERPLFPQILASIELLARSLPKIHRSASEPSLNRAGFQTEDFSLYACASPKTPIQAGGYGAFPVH

For orientation: IC50 means the concentration that gives 50% inhibition. A word on the Papp: it is the rate of passage across a membrane or cell layer, normalised by area and donor concentration. For orientation: efflux ratio means a quotient of directional permeabilities that is used to spot active efflux. As to `CO[C@@H]1CCN(S(=O)(=O)Nc2ccc(F)c(Nc3ccc4ncn(C)c(=O)c4c3Cl)c2Cl)C1` [Example 6, (R)-N-(2-chloro-4-fluoro-3-((5-chloro-3-methyl-4-oxo-3,4-dihydroquinazolin-6-yl)amino)phenyl)-3-methoxypyrrolidine-1-sulfonamide], the IC50 in data set [1] came out at 13 nM; with A375 cells, 6 nM; in the data set with H1755 cells, 66 nM. The Papp at 2 h, 1 µM in data set [2] is 27 ×10⁻⁶ cm/s. The efflux ratio at 2 h, 1 µM at P-gp (MDR1) was 1.9; at BCRP, 1.3. In data set [3], the Kp was 0.87 to 1.76.

For `Cn1cnc2ccc(Nc3c(F)ccc(NS(=O)(=O)N4CCCC4)c3Cl)c(F)c2c1=O` [Example 7, N-(2-chloro-4-fluoro-3-((5-fluoro-3-methyl-4-oxo-3,4-dihydroquinazolin-6-yl)amino)phenyl)pyrrolidine-1-sulfonamide trifluoroacetate], the IC50 in data set [1] was determined as 12 nM; in the data set on A375 cells it was 5 nM; in the data set on H1755 cells, 31 nM. In data set [2], this compound returned a Papp at 2 h, 1 µM of 29 ×10⁻⁶ cm/s. Also, the figures for the efflux ratio at 2 h, 1 µM at P-gp (MDR1) and on BCRP were 1.7 and 2.2, respectively. The Kp in data set [3] fell in the range of 0.37 to 0.61.

For the compound `COC1CN(S(=O)(=O)Nc2ccc(F)c(Nc3ccc4ncn(C)c(=O)c4c3C)c2Cl)C1` [Example 128, N-(2-chloro-3-((3,5-dimethyl-4-oxo-3,4-dihydroquinazolin-6-yl)amino)-4-fluorophenyl)-3-methoxyazetidine-1-sulfonamide trifluoroacetate], the IC50 in data set [1] worked out at 16 nM; in the data set with A375 cells it was 25 nM; in the data set with H1755 cells it was 128 nM. This compound also displayed a Papp at 2 h, 1 µM in data set [2] of 49 ×10⁻⁶ cm/s. Also, the results for the efflux ratio at 2 h, 1 µM on P-gp (MDR1) and at BCRP were 1.5 and 1.3, respectively.

Consider `Cc1c(Nc2c(F)ccc(NS(=O)(=O)N3CC(F)(F)C3)c2Cl)ccc2ncn(C)c(=O)c12` [Example 134, N-(2-chloro-3-((3,5-dimethyl-4-oxo-3,4-dihydroquinazolin-6-yl)amino)-4-fluorophenyl)-3,3-difluoroazetidine-1-sulfonamide], for which the IC50 in data set [1] stood at 7 nM; in the data set with A375 cells, 68 nM; in the data set with H1755 cells, 327 nM. In data set [2], this compound showed a Papp at 2 h, 1 µM of 33 ×10⁻⁶ cm/s. The efflux ratio at 2 h, 1 µM is 1.4 at P-gp (MDR1) and 6.4 on BCRP.

With `Cn1cnc2ccc(Nc3c(F)ccc(NS(=O)(=O)N4CC(F)(F)C4)c3Cl)c(Cl)c2c1=O` [Example 135, N-(2-chloro-3-((5-chloro-3-methyl-4-oxo-3,4-dihydroquinazolin-6-yl)amino)-4-fluorophenyl)-3,3-difluoroazetidine-1-sulfonamide], the IC50 in data set [1] came to 3 nM; in the data set with A375 cells, 22 nM; in the data set on H1755 cells, 189 nM. In data set [2], this compound returned a Papp at 2 h, 1 µM of 29 ×10⁻⁶ cm/s. The values for the efflux ratio at 2 h, 1 µM on P-gp (MDR1) and on BCRP were 1.9 and 5.1, respectively.

Take `Cn1cnc2ccc(Nc3c(F)ccc(NS(=O)(=O)N4CC(F)(F)C4)c3Cl)c(F)c2c1=O` [Example 136, N-(2-chloro-4-fluoro-3-((5-fluoro-3-methyl-4-oxo-3,4-dihydroquinazolin-6-yl)amino)phenyl)-3,3-difluoroazetidine-1-sulfonamide]: the figures for the IC50 (in data set [1]; in the data set with A375 cells; in the data set on H1755 cells) were 6 nM, 7 nM and 89 nM, respectively. Further, in data set [2], the Papp at 2 h, 1 µM worked out at 24 ×10⁻⁶ cm/s. In addition, the efflux ratio at 2 h, 1 µM on P-gp (MDR1) came out at 3; on BCRP, 18.3.

As to `Cn1cnc2ccc(Nc3c(F)ccc(NS(=O)(=O)N4CC(COC(F)F)C4)c3Cl)c(Cl)c2c1=O` [Example 138, N-(2-chloro-3-((5-chloro-3-methyl-4-oxo-3,4-dihydroquinazolin-6-yl)amino)-4-fluorophenyl)-3-((difluoromethoxy)methyl)azetidine-1-sulfonamide trifluoroacetate], the IC50 in data set [1] amounted to 3 nM; in the data set with A375 cells, 6 nM; in the data set on H1755 cells, 26 nM. In data set [2], the Papp at 2 h, 1 µM stood at 33 ×10⁻⁶ cm/s. The efflux ratio at 2 h, 1 µM at P-gp (MDR1) and on BCRP was 3.1 throughout.

With `Cc1c(Nc2c(F)ccc(NS(=O)(=O)N3CC4C(F)C4C3)c2Cl)ccc2ncn(C)c(=O)c12` (centres unmarked) [Example 148, N-(2-chloro-3-((3,5-dimethyl-4-oxo-3,4-dihydroquinazolin-6-yl)amino)-4-fluorophenyl)-6-fluoro-3-azabicyclo[3.1.0]hexane-3-sulfonamide], the values for the IC50 (in data set [1]; in the data set on A375 cells; in the data set with H1755 cells) were 27 nM, 426 nM and 854 nM, respectively. In addition, the Papp at 2 h, 1 µM in data set [2] is 22 ×10⁻⁶ cm/s. In addition, the efflux ratio at 2 h, 1 µM on P-gp (MDR1) worked out at 2.4; on BCRP, 1.8.

In the case of `Cc1c(Nc2c(F)ccc(NS(=O)(=O)N3CC4CC4(F)C3)c2Cl)ccc2ncn(C)c(=O)c12` (centres unmarked) [Example 149, N-(2-chloro-3-((3,5-dimethyl-4-oxo-3,4-dihydroquinazolin-6-yl)amino)-4-fluorophenyl)-1-fluoro-3-azabicyclo[3.1.0]hexane-3-sulfonamide], the IC50 in data set [1] is 8 nM; in the data set on A375 cells it was 108 nM; in the data set with H1755 cells, 337 nM. The compound also registered a Papp at 2 h, 1 µM in data set [2] of 25 ×10⁻⁶ cm/s. Moreover, the efflux ratio at 2 h, 1 µM on P-gp (MDR1) stood at 1.2; at BCRP it was 3.2.

Turning to `Cc1c(Nc2cc(F)cc(NS(=O)(=O)N3CCCC3)c2Cl)ccc2ncn(C)c(=O)c12` [Example 150, N-(2-chloro-3-((3,5-dimethyl-4-oxo-3,4-dihydroquinazolin-6-yl)amino)-5-fluorophenyl)pyrrolidine-1-sulfonamide], the IC50 in data set [1] worked out at 18 nM; with A375 cells, 342 nM; in the data set with H1755 cells, 548 nM. Besides, in data set [2], the apparent permeability (Papp) at 2 h, 1 µM came out at 27 ×10⁻⁶ cm/s. Also, the efflux ratio at 2 h, 1 µM at P-gp (MDR1) is 1.3; on BCRP it was 1.4.

In the case of `Cc1c(Nc2cc(F)cc(NS(=O)(=O)N3CC[C@@H](F)C3)c2Cl)ccc2ncn(C)c(=O)c12` [Example 151, (R)-N-(2-chloro-3-((3,5-dimethyl-4-oxo-3,4-dihydroquinazolin-6-yl)amino)-5-fluorophenyl)-3-fluoropyrrolidine-1-sulfonamide], the IC50 in data set [1] is 14 nM; in the data set with A375 cells, 283 nM; in the data set on H1755 cells, 538 nM. Moreover, the Papp at 2 h, 1 µM in data set [2] turned out to be 28 ×10⁻⁶ cm/s. Besides, the figures for the efflux ratio at 2 h, 1 µM at P-gp (MDR1) and at BCRP were 1.5 and 1.8, respectively.

In the case of `CO[C@@H]1CCN(S(=O)(=O)Nc2cc(F)cc(Nc3ccc4ncn(C)c(=O)c4c3C)c2Cl)C1` [Example 152, (R)-N-(2-chloro-3-((3,5-dimethyl-4-oxo-3,4-dihydroquinazolin-6-yl)amino)-5-fluorophenyl)-3-methoxypyrrolidine-1-sulfonamide], the IC50 amounted to 29 nM in data set [1], 305 nM in the data set with A375 cells and 329 nM in the data set on H1755 cells. In data set [2], this compound yielded a Papp at 2 h, 1 µM of 37 ×10⁻⁶ cm/s. The efflux ratio at 2 h, 1 µM turned out to be 1.3 at P-gp (MDR1) and 1.4 on BCRP.

In the case of `Cc1c(Nc2cc(F)cc(NS(=O)(=O)N3CCCC3)c2F)ccc2ncn(C)c(=O)c12` [Example 154, N-(3-((3,5-dimethyl-4-oxo-3,4-dihydroquinazolin-6-yl)amino)-2,5-difluorophenyl)pyrrolidine-1-sulfonamide], the IC50 in data set [1] came out at 28 nM; with A375 cells, 404 nM; in the data set on H1755 cells, 879 nM. Also, the Papp at 2 h, 1 µM in data set [2] was 26 ×10⁻⁶ cm/s. Moreover, the efflux ratio at 2 h, 1 µM is 1.4 on P-gp (MDR1) and 1.3 on BCRP.

The record behind these values is patent publication US12303509B2, “Compounds for the treatment of BRAF-associated diseases and disorders” (Pfizer Inc., priority 2020, dated 2025).
